A short description of the data set: Bioavailability of nanosized paclitaxel oral dosage form in rat bodies (plasma paclitaxel by HPLC). The conditions noted are these: male, SD, one-time intragastric administration 40 mg/kg. Type of data set: in vivo, SD rats.

The source of these data is patent US20150328157A1, “APPLICATION OF SILICON DIOXIDE AEROGEL AS NANO-DRUG CARRYING SYSTEM IN PHARMACY” (GRADUATE SCHOOL AT SHENZHEN, TSINGHUA UNIVERSITY, priority 2012, published 2015).

Description: Chromatographic conditions: Elite SinoChrom 300A ODS-AP 5 nm 4.6×250 mm Mobile phase: methanol:water:acetonitrile=23:41:36; flow rate: 1.0 ml/min; detection wavelength: 227 nm; and sample size: 20 μl.
Preparation of an internal standard solution: weighing about 10 mg of a diazepam control product, precisely weighing, putting into a 100 ml measuring flask, dissolving with methanol, diluting to the scale and shaking up to obtain an internal standard stock solution with the concentration of 100 μg/ml. An appropriate amount of the stock solution was precisely weighed, diluted with methanol to prepare 10 μg/ml of internal standard control product solution and preserved in the refrigerator at 4° C. for later use.
100 ul of plasma sample was taken and put into an EP tube, 5 μl (10 μg/ml) and 40 μl of NaHCO3(1 mol/L) was added, whirling was performed for 1 min, 1 ml of an extraction solvent, namely ethyl ether, was added, whirling was performed for 2 min, centrifugation was performed at 3500 r/min for 10 min, supernatant fluid was taken and blow-dried under air flow of 40° C., the residue was dissolved in 40 μl of mobile phase, whirling was performed for 1 min, centrifugation was performed at 3500 r/min for 10 min, and then 20 μl of supernatant fluid was taken for sample injection and analysis. […]

The term AUC denotes concentration integrated over time. Read a low AUC as low exposure. Take `CC(=O)O[C@H]1C(=O)[C@@]2(C)[C@H]([C@H](OC(=O)c3ccccc3)[C@]3(O)C[C@H](OC(=O)[C@H](O)[C@@H](NC(=O)c4ccccc4)c4ccccc4)C(C)=C1C3(C)C)[C@]1(OC(C)=O)CO[C@@H]1C[C@@H]2O` [paclitaxel]: the AUC came out at 4890 ng·h/mL.
